Experimental data: US20170058314A1, “NOVEL METHODOLOGY FOR IDENTIFYING ANTI-PERSISTER ACTIVITY AND ANTIMICROBIAL SUSCEPTIBILITY FOR BORRELIA BURGDORFERI AND OTHER BACTERIA” (priority 2014, published 2017)
Values after ≈ are worked out from the molar mass of the structure shown.

Legend:
[1] = tested on: B. burgdorferi (growing, strain B31); assay: MIC determination, standard microdilution method; format: cell-based, Borrelia burgdorferi; settings: for MIC: Borreliella burgdorferi, growing B. burgdorferi, read-out: MIC
[2] = tested on: stationary phase B. burgdorferi persisters (strain B31); assay: NCI compound library screen, SYBR Green I/PI assay (plate reader); settings: for viability at 20 µM: read-out: Residual viable cells (%) 20 μM (SYBR Green I/PI assay), 20 μM, seven day old stationary phase, 7 days
[3] = tested on: stationary phase B. burgdorferi persisters (strain B31); assay: NCI compound library rescreen, epifluorescence microscope counting; settings: Borreliella burgdorferi, 168 h; for viability at 20 µM: read-out: Residual viable cells (%) 20 μM (epifluorescence microscope counting)
[4] = tested on: B. burgdorferi (growing, strain B31); settings: actively growing B. burgdorferi; Feng, Wang, Shi, et al., 2014; cited from earlier work
[5] = tested on: round body form of B. burgdorferi; assay: Subculture test of drug-treated round body form
Method: For induction of round body form of B. burgdorferi, B. burgdorferi spirochetes (1×10^5 spirochetes/mL) were cultured in BKS-H medium for 6 days without shaking. After the 6-day incubation, amoxicillin at a final concentration of 50 μg/mL was added to the culture for round body form induction. After 72 h induction at 33° C., the round body forms of B. burgdorferi were examined by the microscopy. The round body cells (100 μL) were transferred to 96-well tissue culture microplates for evaluation of the effects of antibiotic treatment.

[6] = tested on: stationary phase B. burgdorferi; assay: Subculture test of drug-treated stationary phase B. burgdorferi; format: cell-based, Borrelia burgdorferi; settings: for G/R ratio immediately after treatment / G/R ratio after 7 day subculture / G/R ratio after 15 day subculture / Spirochetes after 7 day subculture (microscope counting) / Spirochetes after 15 day subculture (microscope counting): 10 μg/mL; for G/R ratio immediately after treatment: 7 days; for G/R ratio after 7 day subculture / G/R ratio after 15 day subculture / Spirochetes after 7 day subculture (microscope counting) / Spirochetes after 15 day subculture (microscope counting): 7 days treatment, then subculture; for viability at 10 µg/mL: Borreliella burgdorferi, 168 h, read-out: Residual viable cells (epifluorescence microscope counting)
Method: Seven-day-old B. burgdorferi culture (1×10^7 spirochetes/mL) (500 μL) was treated with drugs or drug combinations in Eppendorf tubes. After incubation at 33° C. for 7 days without shaking, the cells were collected by centrifugation and rinsed with 1 mL fresh BSK-H medium followed by resuspension in 500 μL fresh BSK-H medium without antibiotics. Then 50 μL of cell suspension was transferred to 1 mL fresh BSK-H medium for subculture at 33° C. for 2 weeks. Cell proliferation was assessed using SYBR Green I/PI assay and bacterial counting chamber (Hausser Scientific Partnership) by microscopy as described above.

[7] = tested on: round body form of B. burgdorferi; assay: SYBR Green I/PI assay on amoxicillin-induced round body form; settings: for viability at 50 µM: Borreliella burgdorferi, 168 h, read-out: Residual viable cells (SYBR Green I/PI assay); for Ratios of green/red fluorescence, Primary screening / Ratios of green/red fluorescence, Rescreening (first column) / Ratios of green/red fluorescence, Rescreening (second column): round body form, 50 μM
[8] = tested on: stationary phase B. burgdorferi persisters (strain B31); assay: epifluorescence microscope counting after SYBR Green I/PI staining, FDA drug screen; settings: for viability at 50 µM: Borreliella burgdorferi, 168 h, read-out: Residual viable cells (epifluorescence microscope counting)
[9] = tested on: log phase and stationary phase B. burgdorferi culture; assay: Antibiotic exposure assay, SYBR Green I/PI (drugs alone and combinations); settings: for viability at 10 µg/mL: Borreliella burgdorferi, 168 h, read-out: Live Cell % (residual viable B. burgdorferi), ten-day-old stationary phase culture enriched with micro-colonies, 10 μg/mL each drug, 7 days
How it was run: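 Stationary-phase or round-body B. burgdorferi exposed 7 days at 33 °C to drugs alone or combined at 10 μg/mL each (single-compound screen: 50 μM final). Viability by SYBR Green I/PI, ex 485, em 535/635 nm; percent live from regression of green/red ratio, corrected by direct microscopy counting.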

[10] = tested on: stationary phase B. burgdorferi persisters (strain B31); assay: SYBR Green I/PI viability assay (plate reader), FDA-approved drug library screen; settings: for Ratio of Green/Red fluorescence, Primary screening / Ratio of Green/Red fluorescence, Rescreening (first column) / Ratio of Green/Red fluorescence, Rescreening (second column): 7 days, stationary phase; for viability at 50 µM: Borreliella burgdorferi, 168 h, read-out: Residual viable cells (regression equation, SYBR Green I/PI assay)
[11] = tested on: round body form of B. burgdorferi; settings: 50 µM
[12] = tested on: log phase E. coli culture; assay: E. coli control, persister frequency by microscope counting after SYBR Green I/PI staining; format: cell-based, Escherichia coli; settings: three hour log phase E. coli, 50 μg/mL amoxicillin for 3 hours
[13] = tested on: log phase E. coli culture; assay: E. coli control, persister frequency by standard plate colony count assay; format: cell-based, Escherichia coli; settings: three hour log phase E. coli, 50 μg/mL amoxicillin for 3 hours
[14] = tested on: B. burgdorferi log and stationary phase cultures; assay: epi-fluorescence microscope counting after antibiotic exposure (persister frequency, planktonic forms); format: cell-based, Borrelia burgdorferi
Method: Specimens were examined on a Nikon Eclipse E800 microscope equipped with differential interference contrast (DIC) and epi-fluorescence illumination, and recorded with a Spot slider color camera. Cell proliferation assays were performed by direct counting using a bacterial counting chamber (Hausser Scientific Partnership) and DIC microscopy. SYBR Green I/PI assay was performed to assess the viability of B. burgdorferi. The ratio of live (green) and dead (red) B. burgdorferi was calculated by counting these cells using a bacterial counting chamber and epi-fluorescence microscopy. The three representative images of every sample were captured for quantitative analysis. Image Pro-Plus software was applied for measuring the biomass (fluorescence intensity) of different forms (spirochetes, round body, and microcolony) of B. burgdorferi as previously described (Shopov and Williams, 2000).
To qualitatively determine the effect of antibiotics, 10 μL of each compound from the pre-diluted plate or pre-diluted stock was added to stationary phase B. burgdorferi culture in the 96-well plate. The final volume per well was adjusted to 100 μL at a concentration of 10 μg/mL for each antibiotic. Plates were sealed and placed in a 33° C. incubator for 7 days. The SYBR Green I/PI viability assay was used to assess the live and dead cells after antibiotic exposure as described (Feng, Wang, Shi, et al., 2014). Briefly, 10 μL of SYBR Green I (10,000×stock, Invitrogen) was mixed with 30 μL propidium iodide (PI, 20 mM) into 1.0 mL of sterile dH2O. Then, 10 μL of staining mixture was added to each well and mixed thoroughly. The plates were incubated at room temperature in the dark for 15 minutes followed by plate reading at excitation wavelength at 485 nm and the fluorescence intensity at 535 nm (green emission) and 635 nm (red emission) in microplate reader (HTS 7000 plus Bio Assay Reader, PerkinElmer Inc., USA). With least-square fitting analysis, the regression equation and regression curve of the relationship between percentage of live bacteria and green/red fluorescence ratios was obtained. The regression equation was used to calculate the percentage of live cells in each well of the 96-well plate.
Therefore, the frequency of B. burgdorferi persisters in log phase and stationary phase cultures was assessed using the SYBR Green I/PI viability assay after exposure of the cultures to antimicrobials. E. coli culture was used as a control after exposure to antibiotics to validate the SYBR Green I/PI viability assay for persister frequency assessment.

[15] = read-out: Activity against persisters (residual viable cell percentage)
[16] = read-out: Residual viable cells (%) 50 μM (epifluorescence microscope counting)
[17] = read-out: Residual viable cells (epifluorescence microscope counting)
[18] = 10 μg/mL, 7 days treatment, then subculture
[19] = 10 μg/mL drugs or combinations, 7 days
[20] = 50 μM, 7-day old stationary phase cells treated for 7 days

Structure (SMILES) | MIC [1] [µg/mL] | viability at 20 µM ([2]; Borreliella burgdorferi, 168 h) [%] | viability at 50 µM [3, 15] [%] | viability at 20 µM [3] [%] | viability at 50 µM [3, 16] [%] | viability at 50 µM [3, 17] [%] | G/R ratio immediately after treatment [6] | G/R ratio after 7 day subculture [6] | G/R ratio after 15 day subculture [6] | Spirochetes after 7 day subculture (microscope counting) [6] | Spirochetes after 15 day subculture (microscope counting) [6] | viability at 10 µg/mL [6] [%] | viability at 50 µM [7] [%] | Ratios of green/red fluorescence, Primary screening ([7]; 7 days) | Ratios of green/red fluorescence, Rescreening (first column) ([7]; 7 days) | Ratios of green/red fluorescence, Rescreening (second column) ([7]; 7 days) | viability at 50 µM [8] [%] | Ratio of Green/Red fluorescence, Primary screening ([10]; 50 μM) | Ratio of Green/Red fluorescence, Rescreening (first column) ([10]; 50 μM) | Ratio of Green/Red fluorescence, Rescreening (second column) ([10]; 50 μM) | other results
CCCCCCCCCC(=O)N[C@@H](Cc1c[nH]c2ccccc12)C(=O)N[C@H](CC(N)=O)C(=O)N[C@@H](CC(=O)O)C(=O)N[C@@H]1C(=O)NCC(=O)N[C@@H](CCCN)C(=O)N[C@@H](CC(=O)O)C(=O)N[C@H](C)C(=O)N[C@@H](CC(=O)O)C(=O)NCC(=O)N[C@H](CO)C(=O)N[C@@H]([C@H](C)CC(=O)O)C(=O)N[C@@H](CC(=O)c2ccccc2N)C(=O)O[C@@H]1C [Daptomycin] | 12.5 to 25 (≈ 7.71 to 15.4 µM) | 32 | 18 | 25 | 18 | 18 | 5.85 | 7.01 | 7.11 | 3.1 × 10^6 | 5 × 10^6 | 55 | 19 | 5.90 | 6.09 | 5.93 | 35 | 6.10 | 6.20 | 6.09 | viability at 50 µM ([2]; Borreliella burgdorferi, 168 h, read-out: Residual viable cells (SYBR Green I/PI assay), 50 μM, seven day old stationary phase culture, 7 days): 23%; MIC (previous study) [4]: 12.5 to 25 µg/mL; Spirochetes number After 10 day subculture [5, 18]: 5 × 10^5; Spirochetes number After 20 day subculture [5, 18]: 5 × 10^6; viability at 10 µg/mL ([5]; Borreliella burgdorferi, 168 h, read-out: Residual viable cells): 18%; Live cell %, round body form [7, 19]: 17%; Live cell %, ten day old stationary phase culture (in brackets) [9, 19]: 48%; Live Cell % (residual viable B. burgdorferi) ([9]; Borrelia burgdorferi, 7 days, 10 μg/mL): 52%; viability at 10 µg/mL [9]: 48%; viability at 50 µM [10]: 28%
CO[C@@H]1[C@@H](O[C@@H]2O[C@H](C)[C@@H](O[C@H]3C[C@@](C)(O)[C@@H](OC(=O)CC(C)C)[C@H](C)O3)[C@H](N(C)C)[C@H]2O)[C@@H](CC=O)C[C@@H](C)C(=O)/C=C/[C@@H]2O[C@@H]2C[C@@H](C)OC(=O)C[C@H]1OC(C)=O [Carbomycin] | – | – | – | – | – | – | – | – | – | – | – | – | – | – | – | – | – | 6.37 | 6.81 | 6.32 | sensitivity of log phase / multiplying B. burgdorferi (words, FIG. 12) ([1]; MIC test): very sensitive; Residual viable cells (epifluorescence microscope counting) [8, 20]: 41%; Residual viable cells (SYBR Green I/PI assay) [11]: 43%; Residual viable cells (regression equation, SYBR Green I/PI assay) [10, 20]: 37%
N[C@@H](C(=O)N[C@@H]1C(=O)N2C(C(=O)O)=C(Cl)CC[C@H]12)c1ccccc1 [Loracarbef] | – | – | – | – | – | – | – | – | – | – | – | – | – | 6.35 | 6.25 | 6.24 | – | – | – | – | Residual viable cells (SYBR Green I/PI assay) [11]: 33%
CC1(C)S[C@@H]2[C@H](NC(=O)[C@H](N)c3ccc(O)cc3)C(=O)N2[C@H]1C(=O)O [Amoxicillin] | ≤ 0.25 | 77 | 77 | 77 | 77 | 77 | 7.16 | 6.32 | 7.23 | 1 × 10^6 | 6 × 10^6 | 80 | 46 | 6.53 | 6.59 | 6.52 | 76 | 7.98 | 7.86 | 7.82 | Residual viable cells (SYBR Green I/PI assay) ([2]; 50 μM, seven day old stationary phase culture, 7 days): 71%; E. coli control Persister frequency (epi-fluorescence microscope counting after SYBR Green I/PI staining) [12]: 4.4%; E. coli control Persister frequency (epi-fluorescence microscope counting after SYBR Green I/PI staining) ([12]; listed as amoxicillin): 4.4%; E. coli control Persister frequency (standard plate colony count assay) [13]: 0.9%; E. coli control Persister frequency (standard plate colony count assay) ([13]; listed as amoxicillin): 0.9%; Spirochetes after 15 day subculture (microscope counting) ([6]; listed as amoxicillin): ~5×10^6; viability at 10 µg/mL [9]: 75%; persister frequency (percentage of live cells after antibiotic treatment, in brackets) ([14]; 3-day log phase culture): (9.6%); persister frequency (in brackets) ([14]; 7-day stationary phase culture): (25%); persister frequency (in brackets) ([14]; 10-day stationary phase culture): (~27%); viability at 50 µM [10]: 76%
